Test results: ChEMBL document CHEMBL4840377, “Colletofragarone A2 and Colletoins A-C from a Fungus Colletotrichum sp. Decrease Mutant p53 Levels in Cells” (J Nat Prod, 2021)

Key:
[1] = test system: SAOS-2; assay: Cytotoxicity against human SAOS-2 cells harbouring p53 R175H mutant incubated for 3 days by MTT assay; assay type: functional, cell-based; conditions: SAOS-2, 72 h
[2] = Reduction in p53 R175H mutant protein level in human SAOS-2 cells assessed as ratio of test compound fluorescence to control fluorescence at 2 uM measured after 2 hrs by Hoechst 33342 staining based immunofluorescence assay; assay type: functional

Row | SMILES | IC50 [1] | Ratio [2]
1 | C/C=C/C=C/C=C/C1=C2C(=O)O[C@@H](C)C[C@@H](O)C[C@@H](O)[C@H]3C(=O)C[C@@H](O)[C@H](O1)[C@H]23 | 12 µM | 
2 | C/C=C/C=C/C=C/C1=C2C(=O)O[C@@H](C)C[C@@H](O)C[C@@H](O)[C@@H]3C(=O)C=C[C@H](O1)[C@H]23 | 0.35 µM | 0.4
3 | C/C=C/C=C\C=C\C1=C2C(=O)O[C@@H](C)CCCC[C@@H]3C(=O)C=C[C@H](O1)[C@H]23 | 0.36 µM | 0.57
4 | C/C=C/C=C/C=C/C1=C2C(=O)O[C@@H](C)C[C@@H](O)C[C@@H](O)[C@@H]3C(=O)C[C@@H](O)[C@H](O1)[C@H]23 | 21 µM | 
